Test results reported in publication PMC4563558, “Discovery of a series of novel phenylpiperazine derivatives as EGFR TK inhibitors” (Scientific Reports, 2015).

What was measured:
[1] = tested on: HeLa; assay: MTT antiproliferation assay, HeLa; assay type: cell-based; conditions: Homo sapiens, 72 h exposure, read-out: IC50 ± SD, HeLa
Method: (§1) To test the antiproliferative activities of the synthesized compounds (see supplementary Scheme S1 and S2), the target compounds were evaluated in vitro antiproliferation assays against three human cancer cell lines (MCF-7, HeLa and A549) and one human normal lung cell line.
(§2) The in vitro anticancer activities of the prepared compounds against MCF-7, HeLa and A549 cell lines were evaluated as described in the literature[23] with some modifications. Target tumor cells were grown to log phase in DMEM medium supplemented with 10% fetal bovine serum. After reaching a dilution of 1 × 10^5 cells mL^−1 with the medium, 100 μL of the obtained cell suspension was added to each well of 96-well culture plates. Subsequently, incubation was performed at 37 °C in 5% CO2 atmosphere for 48 h before the cytotoxicity assessment. Tested samples at preset concentrations were added to 6 wells with Erlotinib being employed as a positive reference. After 72 h exposure period, 25 μL of PBS containing 2.5 mg mL^−1 of MTT was added to each well. After 4 h, the medium was replaced by 150 μL DMSO to dissolve the purple formazan crystals produced. The absorbance at 570 nm of each well was measured with an ELISA plate reader. The data represented the mean of three independent experiments in triplicate and were expressed as means ± SD. The IC50 value was defined as the concentration at which 50% of the cells could survive.

[2] = tested on: MCF-7; assay: MTT antiproliferation assay, MCF-7; assay type: cell-based; conditions: Homo sapiens, MCF7, 72 h exposure, read-out: IC50 ± SD, MCF-7
Method: as §1, §2

[3] = tested on: Lung cells; assay: MTT assay, human normal lung cell line; assay type: cell-based; conditions: read-out: IC50 ± SD, Lung cells
Method: as §1, §2

[4] = tested on: A549 cells; assay: Tumor volume in nude mice inoculated with A549 cells; assay type: in vivo; conditions: 20 mg/kg/2 days, day 14
Method: To further evaluate the antitumor effect of compound 3p in vivo, we performed an animal study. Mice were inoculated subcutaneously with A549 cells (5.0 × 10^6) on their shoulders. […]. […] […].
Male BALB/c nude mice, 35–40 days old and weighing 18–22 g, were supplied by Shanghai Laboratory Animal Limited Company. The mice were raised in air-conditioned rooms under controlled lighting (12 h lighting/day) and were fed with standard laboratory food and water ad libitum. Before injection into the mice, the lung cancer cells (A549) were harvested by trypsinization and washed three times with cold serum-free medium and then injected in a total volume of 0.1 mL using a 1-mL latex-free syringe (BD) within 30 min of harvest. Mice were inoculated subcutaneously with A549 cells (5.0 × 10^6) on their shoulders. When the tumor had increased to 100 mm^3 , the mice were equally randomized into 4 groups (with 6 mice/group): saline tumor control group; compound 3p 20 mg/kg/2 days group; compound 3p 40 mg/kg/2 days group; […]. The control group received 0.9% normal saline. Tumor size was measured once every 2 days in two per-pendicular dimensions with Vernier calipers and converted to tumor volume (TV) using the formula: (ab^2)/2, where a and b refer to the longer and shorter dimensions, respectively. The body weight of the animals was measured twice a week at the same time as the tumor dimension measurement and the mortality was monitored daily. After the treatments, all mice were killed and weighed simultaneously, and then tumor was segregated and weighed.

[5] = tested on: A549; assay: MTT antiproliferation assay, A549; assay type: cell-based; conditions: Homo sapiens, 72 h exposure, read-out: IC50 ± SD, A549
Method: as §1, §2

[6] = target: T1, VEGFR2 (Homo sapiens, UniProt P35968); assay: Kinase selectivity assay (kit), VEGFR2; assay type: biochemical; conditions: read-out: Inhibition of VEGFR2 IC50
T1 construct: purchased Bio-Swamp
Method: (§3) To validate whether the above anti-proliferative effect was produced by interaction of EGFR protein and the synthesized compounds, the synthesized compounds were evaluated for their abilities to inhibit the activity of four protein kinases relevant to cancer: EGFR, VEGFR2, bFGF, PDGFR. […] Additionally, the activity data inferred that the IC50 values of these compounds shared a similar tendency with their relevant IC50 values of anti-proliferative assay. […] Therefore, we could conclude that the synthesized inhibitors can inhibit the function of EGFR and the anti-proliferative effect was produced partly by interaction of EGFR protein and the compounds.
(§4) The EGFR, VEGFR2, bFGF and PDGFR Kinase Assay Kit were purchased from Bio-Swamp. The experiments were performed according to the manufacturer’s instructions.

[7] = target: PDGFR; assay: Kinase selectivity assay (kit), PDGFR; assay type: biochemical; conditions: read-out: Inhibition of PDGFR IC50
Method: as §3, §4

[8] = tested on: MCF-7, HeLa and A549 cell lines; assay: Anticancer activities discussed in text (cell line not specified); assay type: cell-based, human; conditions: comparison within series and with positive control
Method: According to the data presented in Table 1, it could be concluded that the activity of the tested compounds may be correlated to the variation and modifications of structure.
as §2

[9] = tested on: Erythrocytes; assay: Hemolysis test; assay type: cell-based; conditions: human erythrocytes, 3 h incubation
Method: Hemolytic activity was assayed using fresh capillary human blood. Erythrocytes were collected by centrifuging the blood three times in chilled phosphate buffered saline (PBS at 4 °C) at 1000 × g for 10 min. The final pellet was resuspended in PBS to give a 2% w/v solution. Using a microtitre plate, 100 μL of the erythrocyte solution was added to dextran, PLL, stearyl-PLL or stearyl-PLL+LDL (1–1000/μg/mL) in a volume of […]. Samples were then incubated for 3 h and the microtitre plate was centrifuged then at 1000 × g for 10 min and the supernatants (100 μL) transferred into a new microtitre plate. Hemoglobin release was determined spectrophotometrically using a microtitre plate reader (absorbance at 550 nm). Results were expressed as the amount of released hemoglobin induced by the compounds as a percentage of the total. Hemolysis test was tested according to the guide of biological evaluation of medical device (SFDA, China).

[10] = Acute oral toxicity, bodyweights; assay type: in vivo; conditions: mice; for Bodyweights 0 day ± SD: day 0; for Bodyweights 7 days ± SD: day 7
Method: Before the acute toxicity experiment, mice were stopped being served food but water was kept for 3 h. The test substances were dissolved in maize germ oil[24]. The preliminary experiment was performed as follows: Four dose levels, 100, 500, 2000, and 5000 mg/kg body weight and three mice for each level were used. We observed the death and evident toxicity in 7 days to determine the general concentration range. Then the administration doses were graded with geometric progression for ease of the calculation of LD50. Mice were randomly divided into groups (10 mice/group). […] The control groups received maize germ oil only. After the administration, food was withheld for 2 h.

[11] = target: T2, EGFR (Homo sapiens, UniProt P00533); assay: Kinase selectivity assay (kit), EGFR; assay type: biochemical; conditions: read-out: Inhibition of EGFR IC50
T2 construct: purchased Bio-Swamp
Method: as §4

[12] = target: bFGF; assay: Kinase selectivity assay (kit), bFGF; assay type: biochemical; conditions: read-out: Inhibition of bFGF IC50
Method: as §3, §4

[13] = in vitro; assay type: cell-based; conditions: mouse
Method: The cytotoxic activity in vitro was measured against mouse fibroblast NIH-3T3 cells using the MTT assay. Cells were cultured in a 96-well plate at a density of 5 × 10^5 cells and different concentrations of compounds were respectively added to each well. The incubation was permitted at 37 °C, 5% CO2 atmosphere for 24 h before the cytotoxicity assessments. 20 μL MTT reagent (4 mg/mL) was added per well 4 h before the end of the incubation. Four hours later, the plate was centrifuged at 1200 rcf for 5 min and the supernatants were removed, each well was added with 200 μL DMSO. The absorbance was measured at a wavelength of 490 nm (OD 490 nm) on an ELISA microplate reader. Three replicate wells were used for each concentration and each assay was measured three times, after which the average of IC50 was calculated.

T2 sequence (P00533 25-1210): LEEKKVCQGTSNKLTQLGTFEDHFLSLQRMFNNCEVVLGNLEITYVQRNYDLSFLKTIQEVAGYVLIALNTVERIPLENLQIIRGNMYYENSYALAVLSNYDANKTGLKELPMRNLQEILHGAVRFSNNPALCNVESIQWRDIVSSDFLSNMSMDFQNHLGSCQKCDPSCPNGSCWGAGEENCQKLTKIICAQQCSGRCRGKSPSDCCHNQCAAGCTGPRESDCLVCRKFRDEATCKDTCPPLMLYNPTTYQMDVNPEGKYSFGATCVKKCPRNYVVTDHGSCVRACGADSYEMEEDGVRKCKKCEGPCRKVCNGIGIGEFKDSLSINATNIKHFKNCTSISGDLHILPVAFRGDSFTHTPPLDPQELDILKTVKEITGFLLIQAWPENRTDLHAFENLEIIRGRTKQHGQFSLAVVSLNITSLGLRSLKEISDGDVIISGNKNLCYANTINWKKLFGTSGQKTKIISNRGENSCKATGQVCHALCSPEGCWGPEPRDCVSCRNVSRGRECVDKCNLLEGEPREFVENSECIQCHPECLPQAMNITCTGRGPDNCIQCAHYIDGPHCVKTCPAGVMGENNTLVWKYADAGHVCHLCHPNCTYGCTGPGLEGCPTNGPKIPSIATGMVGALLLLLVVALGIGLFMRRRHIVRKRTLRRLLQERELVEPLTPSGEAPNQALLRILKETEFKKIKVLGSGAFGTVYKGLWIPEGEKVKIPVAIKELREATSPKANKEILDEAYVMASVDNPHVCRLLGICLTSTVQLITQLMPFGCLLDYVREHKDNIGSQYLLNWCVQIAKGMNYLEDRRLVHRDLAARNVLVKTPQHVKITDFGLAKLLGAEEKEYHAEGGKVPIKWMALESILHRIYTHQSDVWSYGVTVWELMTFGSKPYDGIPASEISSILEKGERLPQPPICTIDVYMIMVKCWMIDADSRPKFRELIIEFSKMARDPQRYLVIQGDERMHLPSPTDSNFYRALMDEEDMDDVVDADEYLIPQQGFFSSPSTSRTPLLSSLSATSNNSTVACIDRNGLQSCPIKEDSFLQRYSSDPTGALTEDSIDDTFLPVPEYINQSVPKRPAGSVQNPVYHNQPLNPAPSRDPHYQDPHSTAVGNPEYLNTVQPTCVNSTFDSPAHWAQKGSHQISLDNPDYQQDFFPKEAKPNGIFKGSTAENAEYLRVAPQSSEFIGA
T1 sequence (P35968 20-1356, species assumed): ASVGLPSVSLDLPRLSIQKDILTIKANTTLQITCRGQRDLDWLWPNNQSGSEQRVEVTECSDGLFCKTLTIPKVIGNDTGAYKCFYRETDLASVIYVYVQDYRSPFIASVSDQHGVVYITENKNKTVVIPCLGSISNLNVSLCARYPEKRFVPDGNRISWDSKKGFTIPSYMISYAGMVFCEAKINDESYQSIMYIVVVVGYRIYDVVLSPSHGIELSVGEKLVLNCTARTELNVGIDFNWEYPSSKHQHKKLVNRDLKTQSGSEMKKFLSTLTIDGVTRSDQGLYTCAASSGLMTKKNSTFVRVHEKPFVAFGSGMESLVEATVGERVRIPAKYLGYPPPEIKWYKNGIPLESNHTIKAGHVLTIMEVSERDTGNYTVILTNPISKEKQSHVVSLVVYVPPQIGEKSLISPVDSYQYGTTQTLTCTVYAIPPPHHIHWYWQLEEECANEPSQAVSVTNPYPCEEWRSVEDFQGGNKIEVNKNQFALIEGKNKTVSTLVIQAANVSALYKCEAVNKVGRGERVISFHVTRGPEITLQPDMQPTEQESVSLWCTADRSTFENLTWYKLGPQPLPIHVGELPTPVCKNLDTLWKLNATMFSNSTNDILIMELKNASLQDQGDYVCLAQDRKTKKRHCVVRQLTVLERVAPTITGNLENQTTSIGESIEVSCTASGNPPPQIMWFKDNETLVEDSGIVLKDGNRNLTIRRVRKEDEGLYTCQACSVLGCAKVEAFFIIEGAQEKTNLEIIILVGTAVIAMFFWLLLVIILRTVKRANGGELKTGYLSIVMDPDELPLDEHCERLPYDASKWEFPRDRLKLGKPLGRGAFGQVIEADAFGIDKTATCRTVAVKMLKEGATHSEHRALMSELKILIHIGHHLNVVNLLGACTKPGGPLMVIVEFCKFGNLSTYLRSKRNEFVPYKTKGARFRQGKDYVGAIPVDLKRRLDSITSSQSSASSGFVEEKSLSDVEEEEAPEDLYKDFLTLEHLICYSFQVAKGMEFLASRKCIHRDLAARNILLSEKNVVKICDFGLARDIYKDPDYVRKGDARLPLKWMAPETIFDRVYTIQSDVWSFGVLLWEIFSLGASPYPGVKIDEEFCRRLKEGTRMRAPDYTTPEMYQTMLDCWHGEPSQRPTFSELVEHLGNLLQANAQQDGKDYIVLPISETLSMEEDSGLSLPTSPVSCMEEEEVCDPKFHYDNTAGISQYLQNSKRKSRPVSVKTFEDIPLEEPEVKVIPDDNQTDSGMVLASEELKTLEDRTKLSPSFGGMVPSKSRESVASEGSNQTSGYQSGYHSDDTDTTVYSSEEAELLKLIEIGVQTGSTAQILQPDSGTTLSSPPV

Row | SMILES | IC50 [1] | IC50 [2] | IC50 [3] | Reduction of the growth of tumors [4] | IC50 [5] | IC50 [6] | IC50 [7] | Anticancer / antitumor activity (in words) [8] | Hemolysis LC30 (lytic concentration 30%) [9] | Bodyweights 0 day ± SD [10] | Bodyweights 7 days ± SD [10] | IC50 [11] | IC50 [12] | IC50 at 24 h [13]
1 | C#Cc1cccc(Nc2ncnc3cc(OCCOC)c(OCCOC)cc23)c1 [Erlotinib, reference compound] | 0.11 ± 0.01 µM | 0.15 ± 0.03 µM | 195.2 ± 1.27 µM | 49.09% | 0.1 ± 0.0004 µM |  |  |  |  |  |  |  |  | 
2 | COc1ccc(N2CCN(CC(=O)Nc3nc(OC)cc(OC)n3)CC2)cc1 [3i, N-(4,6-Dimethoxypyrimidin-2-yl)-2-(4-(4-methoxyphenyl)piperazin-1-yl)acetamide] | 0.9 ± 0.07 µM | 2.98 ± 0.09 µM | 197.5 ± 1.74 µM |  | 2.22 ± 0.05 µM | 3.99 ± 0.08 µM | 31.8 ± 3.12 µM | better anticancer activities compared to the positive control | >10000 µg/mL | 21.33 ± 0.67 g | 25.83 ± 1.30 g | 0.91 ± 0.006 µM | 22.35 ± 0.1 µM | 198.5 ± 1.13 µM
3 | COc1cc(OC)nc(NC(=O)CN2CCN(c3ccc([N+](=O)[O-])cc3)CC2)n1 [3f, N-(4,6-Dimethoxypyrimidin-2-yl)-2-(4-(4-nitrophenyl)piperazin-1-yl)acetamide] | 4.99 ± 0.07 µM | 2.09 ± 0.01 µM | 202 ± 4.05 µM |  | 0.08 ± 0.003 µM | 7.67 ± 0.07 µM | 24.5 ± 2.56 µM |  | >10000 µg/mL | 20.57 ± 1.43 g | 27.25 ± 1.50 g | 2.12 ± 0.08 µM | 21.5 ± 0.69 µM | 155 ± 3.05 µM
4 | COc1cc(OC)nc(NC(=O)CN2CCN(c3ccccc3)CC2)n1 [3d, N-(4,6-Dimethoxypyrimidin-2-yl)-2-(4-phenylpiperazin-1-yl)acetamide] | 10.2 ± 0.28 µM | 9.87 ± 1 µM | 136 ± 3.15 µM |  | 2.17 ± 0.02 µM | 10.1 ± 1.08 µM | 8.5 ± 0.09 µM | worst anticancer activity | >10000 µg/mL | 21.18 ± 2.15 g | 25.57 ± 1.56 g | 5.11 ± 0.03 µM | 18.5 ± 2.11 µM | 150 ± 2.56 µM
5 | COc1cc(OC)nc(NC(=O)CN2CCN(c3ccccn3)CC2)n1 [3m, N-(4,6-Dimethoxypyrimidin-2-yl)-2-(4-(pyridin-2-yl)piperazin-1-yl)acetamide] | 5.11 ± 0.006 µM | 2.87 ± 0.004 µM | 165.8 ± 0.59 µM |  | 1.55 ± 0.004 µM | 7.23 ± 0.78 µM | 50 ± 4.76 µM |  | >10000 µg/mL | 22.43 ± 1.02 g | 22.09 ± 1.02 g | 2.55 ± 0.67 µM | 3.8 ± 0.036 µM | 182 ± 3.22 µM
6 | N.N.[Cl][Pt][Cl] [DDCP, reference compound] |  |  |  |  |  |  |  |  | >10000 µg/mL |  |  |  |  | 
7 | COc1cc(OC)nc(NC(=O)CN2CCN(c3ccccc3F)CC2)n1 [3c, N-(4,6-Dimethoxypyrimidin-2-yl)-2-(4-(2-fluorophenyl)piperazin-1-yl)acetamide] | 2.69 ± 0.1 µM | 4.13 ± 0.01 µM | 178 ± 2.02 µM |  | 0.55 ± 0.02 µM | 8.94 ± 0.73 µM | 33.8 ± 1.94 µM |  | >10000 µg/mL | 21.09 ± 1.16 g | 26.09 ± 0.93 g | 1.35 ± 0.006 µM | 25.4 ± 2.34 µM | 230 ± 3.15 µM
8 | COc1cc(OC)nc(NC(=O)CN2CCN(c3cccc(C(F)(F)F)c3)CC2)n1 [3r, N-(4,6-Dimethoxypyrimidin-2-yl)-2-(4-(3-(trifluoromethyl)phenyl)piperazin-1-yl)acetamide] | 4.02 ± 0.01 µM | 4.97 ± 0.01 µM | 150 ± 3.03 µM |  | 0.33 ± 0.07 µM | 6.95 ± 0.68 µM | 3.87 ± 0.92 µM |  | >10000 µg/mL | 21.00 ± 1.01 g | 25.07 ± 1.21 g | 1.96 ± 0.006 µM | 33.9 ± 3.59 µM | 185 ± 2.16 µM
